Test results reported in PubChem BioAssay (NCI).
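48-hour exposure; five concentrations; linearly interpolated endpoints. TGI: concentration producing complete growth inhibition.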 *1 amine or outer side, *2 acyl side, *3 side chain or, on linkers, in order; H or OH if unused. Where a SMILES comes first, the peptide text is derived from it. Bridges are numbered along the chain shown (N, C = ends). Roman numbers before positions name the chains, in order. [ ]: non-standard residue; d: D form. ξ: configuration not given here. X54 = N=C(N)NCCC[C@@H](NC(=N)CCCCCCC(=N)N[C@H](CCCNC(=N)N)C(=O)[*:2])C(=O)[*:1]; dIgl = N[C@@H](C(=O)O)C1Cc2ccccc2C1; Hyp = O=C(O)[C@@H]1C[C@@H](O)CN1; ξIgl = NC(C(=O)O)C1Cc2ccccc2C1; ξOic = O=C(O)C1CC2CCCCC2N1; ξR = N=C(N)NCCCC(N)C(=O)O; ξP = O=C(O)C1CCCN1; ξS = NC(CO)C(=O)O

Tests used:
Assay in all cases: DTP human tumour cell line panel, 48 h
A498 renal = system: A498 renal
HCT-15 colon = system: HCT-15 colon
HOP-62 NSCLC = system: HOP-62 NSCLC
HOP-92 NSCLC = system: HOP-92 NSCLC
IGROV1 ovarian = system: IGROV1 ovarian
MCF7 breast = system: MCF7 breast
MDA-MB-435 = system: MDA-MB-435
NCI-H226 lung = system: NCI-H226 lung
OVCAR-5 ovarian = system: OVCAR-5 ovarian
OVCAR-8 ovarian = system: OVCAR-8 ovarian
SF-268 CNS = system: SF-268 CNS
SK-MEL-28 melanoma = system: SK-MEL-28 melanoma
SK-MEL-5 melanoma = system: SK-MEL-5 melanoma
SR leukemia = system: SR leukemia
TK-10 renal = system: TK-10 renal
U251 CNS = system: U251 CNS
UO-31 renal = system: UO-31 renal
KM12 colon = system: KM12 colon
RXF 393 renal = system: RXF 393 renal
SK-MEL-2 melanoma = system: SK-MEL-2 melanoma

Row | SMILES | TGI (A498 renal) [µM] | TGI (HCT-15 colon) [µM] | TGI (HOP-62 NSCLC) [µM] | TGI (HOP-92 NSCLC) [µM] | TGI (IGROV1 ovarian) [µM] | TGI (MCF7 breast) [µM] | TGI (MDA-MB-435) [µM] | TGI (NCI-H226 lung) [µM] | TGI (OVCAR-5 ovarian) [µM] | TGI (OVCAR-8 ovarian) [µM] | TGI (SF-268 CNS) [µM] | TGI (SK-MEL-28 melanoma) [µM] | TGI (SK-MEL-5 melanoma) [µM] | TGI (SR leukemia) [µM] | TGI (TK-10 renal) [µM] | TGI (U251 CNS) [µM] | TGI (UO-31 renal) [µM] | TGI (KM12 colon) [µM] | TGI (RXF 393 renal) [µM] | TGI (SK-MEL-2 melanoma) [µM]
1 | COc1cc(CC(C)=O)cc(OC)c1 | > 100 | > 100 | > 100 | > 100 | > 100 | > 100 | > 100 | > 100 | > 100 | > 100 | > 100 | > 100 | > 100 | 85.4 | > 100 | > 100 | > 100 | – | – | –
2 | CN(c1ccccc1)S(=O)(=O)c1ccc([N+](=O)[O-])cc1 | – | > 100 | > 100 | – | – | > 100 | > 100 | > 100 | > 100 | > 100 | > 100 | > 100 | – | > 100 | > 100 | > 100 | > 100 | > 100 | > 100 | > 100
3 | Cc1c(Cc2ccccc2)n(C(C)OCCN(OC(=O)Oc2ccccc2)C(=O)Oc2ccccc2)c(=O)[nH]c1=O (configuration not stated) | – | 28.3 | 36.7 | 29.7 | 31.7 | 63.8 | 56.5 | – | 31.6 | 34.7 | 40.3 | 42 | 28.4 | > 100 | – | 38.3 | 29.3 | 29.9 | 30.1 | 37.2
4 | O=C(c1ccccc1)N1CCN(C(=S)NC2CCCCC2)C1=S | 43.3 | 33.2 | 37.3 | 36.7 | 60.8 | 48.2 | 38 | 36.1 | 52.5 | 32.9 | 42.5 | 31.2 | 34.4 | 88.7 | 62 | 21.6 | 30.5 | 30.9 | – | 14.9
5 | COc1cc(C2c3cc4c(cc3OC(NNc3ccccc3)C2C)OCO4)cc(OC)c1OC (configuration not stated) | 6.76 | – | 10.4 | 52.1 | > 100 | > 35.7 | 1.31 | 6.92 | > 81 | > 38.1 | 38.1 | > 100 | 21 | – | 31.8 | 13.2 | 6.79 | 38 | > 94.3 | 38.6
6 | COc1cc(C2S/C(=C/c3ccccc3)C(=O)N2Cc2ccccc2)cc(OC)c1OC (configuration not stated) | > 100 | > 100 | > 100 | > 100 | > 100 | > 100 | > 100 | > 100 | > 100 | > 100 | > 100 | > 100 | > 100 | 57.2 | > 100 | > 100 | > 100 | > 100 | – | > 100
7 | O=C(NC(=S)Nc1ccc([N+](=O)[O-])cc1)c1ccc2c(c1)Sc1ccccc1O2 | > 100 | > 100 | > 100 | > 100 | > 100 | > 100 | > 100 | > 100 | > 100 | > 100 | > 100 | > 100 | > 100 | > 100 | > 100 | > 100 | > 100 | > 100 | – | > 100
8 | Cc1cc2nc3c(C#N)c4c(c(Nc5ccc(F)cc5)n3c2cc1C)CCC4 | – | > 100 | > 100 | – | > 100 | > 100 | > 100 | > 100 | > 100 | > 100 | > 100 | > 100 | > 100 | > 100 | > 100 | > 100 | – | > 100 | > 100 | > 100
9 | N=C(N)NCCCC(NC(=O)C1CC2CCCCC2N1C(=O)[C@H](NC(=O)C(CO)NC(=O)C(NC(=O)CNC(=O)[C@@H]1C[C@@H](O)CN1C(=O)C1CCCN1C(=O)C(CCCNC(=N)N)NC(=O)[C@@H](CCCNC(=N)N)NC(=N)CCCCCCC(=N)N[C@H](CCCNC(=N)N)C(=O)NC(CCCNC(=N)N)C(=O)N1CCCC1C(=O)N1C[C@H](O)C[C@H]1C(=O)NCC(=O)NC(C(=O)NC(CO)C(=O)N[C@@H](C(=O)N1C(C(=O)NC(CCCNC(=N)N)C(=O)O)CC2CCCCC21)C1Cc2ccccc2C1)C1Cc2ccccc2C1)C1Cc2ccccc2C1)C1Cc2ccccc2C1)C(=O)O (some centres not stated) (I: [ξR][ξP][Hyp]G[ξIgl][ξS][dIgl][ξOic][ξR]-OH / II: [ξR][ξP][Hyp]G[ξIgl][ξS][dIgl][ξOic][ξR]-OH; linker I:N-II:N via X54) | – | 4.64 | 5.64 | 4.71 | > 10 | 4.04 | 4.18 | – | > 10 | – | 3.82 | 3.64 | 3.62 | 2.95 | 8.95 | 5.35 | > 10 | 4.13 | 3.02 | 6.77
10 | CN1CCN(C(=O)CCC(=O)Nc2cc3c(c4ccccc24)-c2ccc4ccccc4c2C3)CC1 | 27.6 | 3.68 | 3.15 | 3.36 | 2.74 | 3.03 | 3.02 | 3.93 | 3.15 | 4.38 | 3.57 | 3.26 | 3 | – | 3.27 | 4.11 | 3.28 | 3.2 | 3.45 | 3.65
11 | Nn1c(Nc2ccc(S(N)(=O)=O)cc2)nnc(/C=C/c2c(O)ccc3ccccc23)c1=O | 73.6 | 30.4 | 56.7 | – | 0.942 | 43 | 50.1 | – | 56.1 | 22.6 | > 100 | 53.5 | 28.7 | 25.1 | – | > 100 | 57.3 | 52.2 | – | > 100
12 | CC(=O)OCC1OC(N2C(=O)NC(=O)C3C=C4CCCCC4=CC32)CC1OC(C)=O (configuration not stated) | > 100 | > 100 | > 100 | > 100 | > 100 | > 100 | > 100 | > 100 | > 100 | > 100 | > 100 | > 100 | – | > 100 | > 100 | > 100 | > 100 | > 100 | – | > 100
